The source of these data is ChEMBL document CHEMBL1128108, “Synthesis and antitumor activity of camptothecin derivatives bearing five-membered heterocycle containing 10-substituents” (1995).

Molecules are shown by their SMILES. ≈ marks a conversion by molar mass, not a printed value.

Common to all, as to type: functional
The test system of assay [1] is KB. As to the kind of experiment: In vitro cytotoxicity assay was measured against human tumor KB cell line using camptothecin as a standard. The note with it: read-out: TD50 (the source's name).
Assay [2] concerns HCT-116. As to the kind of experiment: In vitro cytotoxicity assay was measured against human tumor HCT116 cell line using camptothecin as a standard. The note with it: read-out: TD50 (the source's name).
Assay [3] deals with L1210/Adr. As to the kind of experiment: In vitro cytotoxicity assay was measured against human tumor L1210/Adr cell line using camptothecin as a standard. The note with it: Mus musculus, read-out: TD50 (the source's name).
For assay [4], the system named is L1210. As to the kind of experiment: In vitro cytotoxicity assay was measured against human tumor L1210 cell line using camptothecin as a standard. The note with it: Mus musculus, read-out: TD50 (the source's name).
In assay [5] the test system is MCF7. As to the kind of experiment: In vitro cytotoxicity assay was measured against human tumor MCF-7 cell line using camptothecin as a standard. The following applies: read-out: TD50 (the source's name).
For assay [6], the system named is HCT-116. Briefly: In vitro cytotoxicity assay was measured against human tumor HCT116 cell line. The following applies: read-out: TD50 (the source's name).
Assay [7] has as its system L1210. Briefly: In vitro cytotoxicity assay was measured against human tumor L1210 cell line. The following applies: Mus musculus, read-out: TD50 (the source's name).
The subject of assay [8] is KB. As to the kind of experiment: In vitro cytotoxicity assay was measured against human tumor KB cell line. The note with it: read-out: TD50 (the source's name).
In assay [9] the test system is MCF7. Briefly: In vitro cytotoxicity assay was measured against human tumor MCF-7 cell line. The note with it: read-out: TD50 (the source's name).
For assay [10], the system named is L1210/Adr. As to the kind of experiment: In vitro cytotoxicity assay was measured against human tumor L1210/Adr cell line. The note with it: Mus musculus, read-out: TD50 (the source's name).

Turning to `CCC1(O)C(=O)OCc2c1cc1n(c2=O)Cc2cc3cc(OCCNC(=O)S(=O)(=O)c4cccs4)ccc3nc2-1` (stereo not given), the CC50 in assay [1] amounted to 0.5 ng/mL (≈ 0.86 nM); in assay [2], 0.01 ng/mL (≈ 0.0172 nM); in assay [3], 0.1 ng/mL (≈ 0.172 nM); in assay [4], 0.085 ng/mL (≈ 0.146 nM); in assay [5], 100 ng/mL (≈ 172 nM).
The corresponding values for `COc1cccc2c1C(=O)c1c(O)c3c(c(O)c1C2=O)C[C@@](O)(C(=O)CO)C[C@@H]3O[C@H]1C[C@H](N)[C@H](O)[C@H](C)O1` [DOXORUBICIN] are 15 ng/mL (≈ 27.6 nM), 30 ng/mL (≈ 55.2 nM), 400 ng/mL (≈ 736 nM), 6 ng/mL (≈ 11 nM) and 150 ng/mL (≈ 276 nM).
On to `CC[C@@]1(O)C(=O)OCc2c1cc1n(c2=O)Cc2cc3ccccc3nc2-1` [CAMPTOTHECIN], for which the CC50 in assay [6] was 6 ng/mL (≈ 17.2 nM); in assay [7], 10 ng/mL (≈ 28.7 nM); in [8], 8 ng/mL (≈ 23 nM); in assay [9] it was 10 ng/mL (≈ 28.7 nM); in assay [10], 45 ng/mL (≈ 129 nM).
As to `CCC1(O)C(=O)OCc2c1cc1n(c2=O)Cc2cc3cc(OCCNC(=O)/C=C/c4ccco4)ccc3nc2-1` (stereo not given), the CC50 came out at 83 ng/mL (≈ 157 nM) in assay [1]; 65 ng/mL (≈ 123 nM) in assay [2]; 140 ng/mL (≈ 265 nM) in assay [3]; 50 ng/mL (≈ 94.8 nM) in assay [4]; 1000 ng/mL (≈ 1900 nM) in assay [5].
Turning to `CCC1(O)C(=O)OCc2c1cc1n(c2=O)Cc2cc3cc(OCCNC(=O)c4ccc[nH]4)ccc3nc2-1` (stereo not given), the CC50 in assay [1] amounted to 0.4 ng/mL (≈ 0.799 nM); in assay [2], 0.01 ng/mL (≈ 0.02 nM); in [3], 1 ng/mL (≈ 2 nM); in assay [4], 0.1 ng/mL (≈ 0.2 nM); in assay [5], 260 ng/mL (≈ 519 nM).
On to `CCC1(O)C(=O)OCc2c1cc1n(c2=O)Cc2cc3cc(OCCNC(=O)c4cccn4C)ccc3nc2-1` (stereo not given), for which the CC50 in assay [1] stood at 0.5 ng/mL (≈ 0.972 nM); in assay [2], 0.01 ng/mL (≈ 0.0194 nM); in assay [3], 0.95 ng/mL (≈ 1.85 nM); in [4], 0.2 ng/mL (≈ 0.389 nM); in assay [5], 140 ng/mL (≈ 272 nM).
With `CCC1(O)C(=O)OCc2c1cc1n(c2=O)Cc2cc3cc(OCCNC(=O)c4cccs4)ccc3nc2-1` (stereo not given), the CC50 amounted to 0.5 ng/mL (≈ 0.966 nM) in assay [1]; 0.04 ng/mL (≈ 0.0773 nM) in [2]; 1.5 ng/mL (≈ 2.9 nM) in [3]; 0.1 ng/mL (≈ 0.193 nM) in assay [4]; 68 ng/mL (≈ 131 nM) in [5].
Take `CCC1(O)C(=O)OCc2c1cc1n(c2=O)Cc2cc3cc(OCCNC(=O)c4nccn4COC)ccc3nc2-1` (stereo not given): the CC50 was 7 ng/mL (≈ 12.8 nM) in assay [1]; 3 ng/mL (≈ 5.5 nM) in assay [2]; 10 ng/mL (≈ 18.3 nM) in assay [3]; 2 ng/mL (≈ 3.67 nM) in assay [4]; 750 ng/mL (≈ 1370 nM) in assay [5].
Regarding `CCC1(O)C(=O)OCc2c1cc1n(c2=O)Cc2cc3cc(OCCNC(=O)c4cccn4COC)ccc3nc2-1` (stereo not given), the CC50 was found to be 5 ng/mL (≈ 9.18 nM) in [1]; 0.7 ng/mL (≈ 1.29 nM) in [2]; 15 ng/mL (≈ 27.5 nM) in assay [3]; 1 ng/mL (≈ 1.84 nM) in assay [4]; 120 ng/mL (≈ 220 nM) in assay [5].
`CCC1(O)C(=O)OCc2c1cc1n(c2=O)Cc2cc3cc(OCCNC(=O)c4ccco4)ccc3nc2-1` (stereo not given): the CC50 in [1] worked out at 5 ng/mL (≈ 9.97 nM); in [2], 1 ng/mL (≈ 1.99 nM); in assay [3], 15 ng/mL (≈ 29.9 nM); in [4], 4 ng/mL (≈ 7.98 nM); in assay [5], 820 ng/mL (≈ 1640 nM).
`CCC1(O)C(=O)OCc2c1cc1n(c2=O)Cc2cc3cc(OCCNC(=O)C4CCCO4)ccc3nc2-1` (stereo not given): the CC50 worked out at 69 ng/mL (≈ 136 nM) in assay [1]; 55 ng/mL (≈ 109 nM) in assay [2]; 320 ng/mL (≈ 633 nM) in assay [3]; 50 ng/mL (≈ 98.9 nM) in [4]; 900 ng/mL (≈ 1780 nM) in assay [5].
